Results taken from patent US11524963B2, “Substituted pyrazolo[3,4-d]pyrimidines as RET kinase inhibitors” (Array Biopharma Inc., priority 2018, dated 2022).
Counter-ions that a name gives are not always drawn.

Assays:
Type in all cases: biochemical
RET kinase Wild Type = RET kinase Wild Type (Homo sapiens, UniProt P07949); experiment: RET Enzyme Assay (HTRF KinEASE-TK), Wild Type
RET kinase V804M = RET kinase V804M (Homo sapiens, UniProt P07949, V804M); experiment: RET Enzyme Assay (HTRF KinEASE-TK), V804M
RET kinase M918T = RET kinase M918T (Homo sapiens, UniProt P07949, M918T); experiment: RET Enzyme Assay (HTRF KinEASE-TK), M918T
RET kinase G810R = RET kinase G810R (Homo sapiens, UniProt P07949, G810R); experiment: RET Enzyme Assay (HTRF KinEASE-TK), G810R
RET kinase G810S = RET kinase G810S (Homo sapiens, UniProt P07949, G810S); experiment: RET Enzyme Assay (HTRF KinEASE-TK), G810S
Sequence of RET kinase G810S (P07949 29-1114 G810S): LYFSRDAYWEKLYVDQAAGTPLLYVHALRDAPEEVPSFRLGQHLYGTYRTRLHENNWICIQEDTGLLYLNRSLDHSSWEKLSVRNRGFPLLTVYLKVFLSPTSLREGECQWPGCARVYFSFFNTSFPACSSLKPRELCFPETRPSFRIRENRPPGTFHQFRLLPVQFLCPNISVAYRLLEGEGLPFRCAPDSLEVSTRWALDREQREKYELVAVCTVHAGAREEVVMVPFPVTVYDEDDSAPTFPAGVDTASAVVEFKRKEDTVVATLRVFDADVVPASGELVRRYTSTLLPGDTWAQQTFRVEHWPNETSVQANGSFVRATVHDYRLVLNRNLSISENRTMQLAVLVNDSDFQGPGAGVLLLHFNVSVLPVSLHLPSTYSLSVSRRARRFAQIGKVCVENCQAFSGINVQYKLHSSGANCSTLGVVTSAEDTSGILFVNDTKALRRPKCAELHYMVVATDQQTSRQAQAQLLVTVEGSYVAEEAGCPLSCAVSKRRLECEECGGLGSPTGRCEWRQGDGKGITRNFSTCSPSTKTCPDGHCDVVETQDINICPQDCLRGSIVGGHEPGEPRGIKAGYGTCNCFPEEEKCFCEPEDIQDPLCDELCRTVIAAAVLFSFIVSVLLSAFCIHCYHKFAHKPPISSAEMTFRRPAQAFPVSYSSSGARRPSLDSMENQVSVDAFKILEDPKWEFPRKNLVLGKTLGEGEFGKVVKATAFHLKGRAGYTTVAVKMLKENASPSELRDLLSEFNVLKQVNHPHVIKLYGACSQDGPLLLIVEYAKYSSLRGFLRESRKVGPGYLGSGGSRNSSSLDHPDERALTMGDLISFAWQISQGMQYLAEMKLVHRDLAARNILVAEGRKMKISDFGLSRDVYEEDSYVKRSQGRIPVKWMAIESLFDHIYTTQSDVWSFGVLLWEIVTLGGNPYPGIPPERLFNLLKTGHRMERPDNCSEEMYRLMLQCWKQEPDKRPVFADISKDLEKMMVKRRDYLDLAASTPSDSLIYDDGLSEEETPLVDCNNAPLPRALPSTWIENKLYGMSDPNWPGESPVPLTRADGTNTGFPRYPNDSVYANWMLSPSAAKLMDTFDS

Sequence of RET kinase V804M (P07949 29-1114 V804M): as the sequence (P07949 29-1114 G810S) above, with V776M, S782G counted along it
Sequence of RET kinase Wild Type (P07949 29-1114): as the sequence (P07949 29-1114 G810S) above, with S782G counted along it
Sequence of RET kinase M918T (P07949 29-1114 M918T): as the sequence (P07949 29-1114 G810S) above, with S782G, M890T counted along it
Sequence of RET kinase G810R (P07949 29-1114 G810R): as the sequence (P07949 29-1114 G810S) above, with S782R counted along it

IC50 (RET kinase Wild Type)	IC50 (RET kinase V804M)	IC50 (RET kinase M918T)	IC50 (RET kinase G810R)	IC50 (RET kinase G810S)	SMILES
156 nM	–	–	–	–	CC(C)n1nc(-c2cc(C(F)(F)F)[nH]n2)c2c(N)ncnc21 [Example 31, 1-isopropyl-3-(5-(trifluoromethyl)-1H-pyrazol-3-yl)-1H-pyrazolo[3,4-d]pyrimidin-4-amine dihydrochloride]
61.7 nM	–	–	–	–	CC(C)n1nc(-c2cnn(C3CC3)c2)c2c(N)ncnc21 [Example 29, 3-(1-cyclopropyl-1H-pyrazol-4-yl)-1-isopropyl-1H-pyrazolo[3,4-d]pyrimidin-4-amine]
379 nM	276 nM	–	–	–	Cc1cnn(C2CCCCO2)c1-c1nn(C(C)C)c2ncnc(N)c12 (stereo not drawn) [Example 28, 1-isopropyl-3-(4-methyl-1-(tetrahydro-2H-pyran-2-yl)-1H-pyrazol-5-yl)-1H-pyrazolo[3,4-d]pyrimidin-4-amine]
5.3 nM	15.1 nM	4.1 nM	11.4 nM	24.3 nM	CC(C)n1nc(-c2noc(C3CC3)c2I)c2c(N)ncnc21 [Example 12, 3-(5-cyclopropyl-4-iodoisoxazol-3-yl)-1-isopropyl-1H-pyrazolo[3,4-d]pyrimidin-4-amine]
21.1 nM	–	46.5 nM	70.5 nM	226 nM	CC(C)c1cc(-c2nn(C(C)C)c3ncnc(N)c23)n(C2CCCCO2)n1 (stereo not drawn) [Example 20, 1-isopropyl-3-(3-isopropyl-1-(tetrahydro-2H-pyran-2-yl)-1H-pyrazol-5-yl)-1H-pyrazolo[3,4-d]pyrimidin-4-amine]
8.4 nM	–	16.3 nM	48.6 nM	79.8 nM	CC(C)n1nc(-c2cc(C(F)(F)F)nn2C2CCCCO2)c2c(N)ncnc21 (stereo not drawn) [Example 25, 1-isopropyl-3-(1-(tetrahydro-2H-pyran-2-yl)-3-(trifluoromethyl)-1H-pyrazol-5-yl)-1H-pyrazolo[3,4-d]pyrimidin-4-amine]
11.6 nM	–	22.3 nM	42.9 nM	406 nM	CC(C)n1nc(C2CC2)cc1-c1nn(C(C)C)c2ncnc(N)c12 [Example 27, 3-(3-cyclopropyl-1-isopropyl-1H-pyrazol-5-yl)-1-isopropyl-1H-pyrazolo[3,4-d]pyrimidin-4-amine]
37.3 nM	–	–	–	–	CC(C)n1nc(-n2cc(C3CC3)cn2)c2c(N)ncnc21 [Example 34, 3-(4-cyclopropyl-1H-pyrazol-1-yl)-1-isopropyl-1H-pyrazolo[3,4-d]pyrimidin-4-amine]
2.9 nM	29 nM	3.9 nM	3.9 nM	20.6 nM	CC(C)n1nc(-c2noc(C3CC3)c2-c2ccncc2)c2c(N)ncnc21 [Example 8, 3-(5-cyclopropyl-4-(pyridin-4-yl)isoxazol-3-yl)-1-isopropyl-1H-pyrazolo[3,4-d]pyrimidin-4-amine]
5.2 nM	28.8 nM	7.6 nM	13.5 nM	37.3 nM	CC(C)n1nc(-c2noc(C3CC3)c2C2=CCOCC2)c2c(N)ncnc21 [Example 4, 3-(5-cyclopropyl-4-(3,6-dihydro-2H-pyran-4-yl)isoxazol-3-yl)-1-isopropyl-1H-pyrazolo[3,4-d]pyrimidin-4-amine]
8.7 nM	–	9.8 nM	55 nM	54.3 nM	CC(C)n1nc(-c2cc(-c3ccccc3)nn2C2CCCCO2)c2c(N)ncnc21 (stereo not drawn) [Example 24, 1-isopropyl-3-(3-phenyl-1-(tetrahydro-2H-pyran-2-yl)-1H-pyrazol-5-yl)-1H-pyrazolo[3,4-d]pyrimidin-4-amine]
7.1 nM	52.2 nM	8.7 nM	8.4 nM	38.9 nM	CC(C)n1nc(-c2noc(C3CC3)c2-c2cccnc2)c2c(N)ncnc21 [Example 7, 3-(5-cyclopropyl-4-(pyridin-3-yl)isoxazol-3-yl)-1-isopropyl-1H-pyrazolo[3,4-d]pyrimidin-4-amine]
7.2 nM	–	–	–	–	CC(C)n1nc(-c2c[nH]nn2)c2c(N)ncnc21 [Example 35, 1-isopropyl-3-(1H-1,2,3-triazol-4-yl)-1H-pyrazolo[3,4-d]pyrimidin-4-amine]
65.9 nM	–	–	–	–	C=Cc1cc(-c2nn(C(C)C)c3ncnc(N)c23)[nH]n1 [Example 30, 1-isopropyl-3-(3-vinyl-1H-pyrazol-5-yl)-1H-pyrazolo[3,4-d]pyrimidin-4-amine hydrochloride]
8 nM	–	14.2 nM	31.3 nM	87.4 nM	CC(C)n1nc(-c2cc(C3CC3)nn2C2CCCCC2)c2c(N)ncnc21 [Example 26, 3-(1-cyclohexyl-3-cyclopropyl-1H-pyrazol-5-yl)-1-isopropyl-1H-pyrazolo[3,4-d]pyrimidin-4-amine]
44.7 nM	–	–	–	–	CC(=O)n1nc(-c2nn(C(C)C)c3ncnc(N)c23)cc1C [Example 32, 1-(3-(4-amino-1-isopropyl-1H-pyrazolo[3,4-d]pyrimidin-3-yl)-5-methyl-1H-pyrazol-1-yl)ethan-1-one]
7.1 nM	52.5 nM	12.2 nM	12.5 nM	46.6 nM	CC(C)n1nc(-c2noc(C3CC3)c2-c2cnn(C)c2)c2c(N)ncnc21 [Example 3, 3-(5-cyclopropyl-4-(1-methyl-1H-pyrazol-4-yl)isoxazol-3-yl)-1-isopropyl-1H-pyrazolo[3,4-d]pyrimidin-4-amine]
65.9 nM	–	–	–	–	CC(C)n1nc(-c2nccn2C)c2c(N)ncnc21 [Example 33, 1-isopropyl-3-(1-methyl-1H-imidazol-2-yl)-1H-pyrazolo[3,4-d]pyrimidin-4-amine]
